From patent US20190256564A1, “NEMERTEA-DERIVED BIOACTIVE COMPOUNDS” (priority 2016, published 2019)

Tested on: Artemia salina
Settings: in vivo, 24 h
Procedure: Alpha-Nemertides were prepared as described in Example 2, above, or by manual synthesis […] on 2-chlorotrityl resin as described in the Material and methods section below. […]. The brine shrimp assay is commonly used as toxicity assay, but is particularly suitable in the current work as a model system for crustaceans. In the first round of experiments Nemertides α-1, α-2, α-5, and α-6 were evaluated. […]. Artemia salina Assay of Alpha-Nemertides. 100 μl of sea water containing about 20-30 brine shrimps were added to each experimental well of a 96-well microplate. 100 μl of peptide solutions were then added to each well. As a control, some wells were filled with 100 μl of seawater containing shrimps and 100 μl milliQwater. The plates were covered and incubated in the dark at room temperature for 24 hours. After 24 hours, 10 second video clips of each well were filmed through a microscope. The shrimps were subsequently counted and categorized as either dead (not moving), affected (moving slowly, mostly at the bottom of the well) or normal (moving normally compared to the control at all levels of the well). The shrimps were then immobilized by addition of 100 μl of methanol. After 1 hour the total number of shrimps in each well was counted and the ratio (dead+affected)/total was calculated.

CC[C@H](C)[C@@H]1NC(=O)[C@@H](NC(=O)CN)CSSC[C@@H]2NC(=O)[C@@H]3CSSC[C@@H](C(=O)N[C@@H](CC(N)=O)C(=O)N4C[C@H](O)C[C@H]4C(=O)N4C[C@H](O)C[C@H]4C(=O)N[C@@H](CC(N)=O)C(=O)N[C@@H](CCC(N)=O)C(=O)O)NC(=O)[C@H](Cc4c[nH]cn4)NC(=O)[C@H](Cc4ccccc4)NC(=O)[C@H](CC(N)=O)NC(=O)[C@H](Cc4c[nH]c5ccccc45)NC(=O)CNC(=O)[C@H](CSSC[C@H](NC(=O)[C@H](Cc4ccccc4)NC(=O)[C@H](CO)NC(=O)CNC(=O)[C@H]([C@@H](C)O)NC(=O)[C@H](C)NC1=O)C(=O)N[C@@H]([C@@H](C)O)C(=O)N[C@@H](CC(C)C)C(=O)N[C@@H](CO)C(=O)N[C@@H](CCCCN)C(=O)NCC(=O)N3)NC(=O)[C@H](CC(N)=O)NC(=O)[C@H](CCCCN)NC(=O)[C@H]([C@@H](C)O)NC2=O [Nemertide α-5]
IC50: < 1 µM
